Data from publication PMC5321741, “Arylmethylamino steroids as antiparasitic agents” (Nature Communications, 2017).
Like-named read-outs stand apart in the source and are kept apart here.

Tests used:
[1] = tested on: P. falciparum (strain 3D7); assay: 72 h 3H-hypoxanthine incorporation assay, asexual blood stages; type: cell-based, Plasmodium falciparum
P. falciparum strain Dd2 = assay: 72 h 3H-hypoxanthine incorporation assay, chloroquine-resistant strain; type: cell-based; conditions: Plasmodium falciparum
HUVEC = assay: antiproliferative activity on HUVEC cells; type: cell-based; conditions: Homo sapiens, HUVEC, 72 h
Method in brief: (§1)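 K-562 and HeLa seeded at ∼10,000 cells/well; HeLa preincubated 48 h without compound before cytotoxicity testing. 72 h exposure at 37 °C, 5% CO2; K-562 counted by electronic cell analyzer, HUVEC and HeLa glutaraldehyde-fixed, methylene blue-stained, OD 660 nm; GI50 (antiproliferative) and CC50 (cytotoxicity) derived.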

K-562 = assay: antiproliferative activity on K-562 cells; type: cell-based; conditions: Homo sapiens, K562, 72 h
Method in brief: as §1

[2] = cytotoxicity on HeLa cells; type: cell-based; conditions: human, HeLa cells
Method in brief: as §1

[3] = tested on: Bacillus subtilis JMRC:STI:10880; assay: agar diffusion inhibition zone test; type: cell-based; conditions: 1o, ciprofloxacin 5 µg/ml, solvent DMSO 12P
Description: (§2) The following organisms were tested at the Hans Knöll Institute in Jena, for their susceptibility to the compounds 1o and 2o: Bacillus subtilis JMRC:STI:10880, Staphylococcus aureus JMRC:ST:10760, Escherichia coli JMRC:ST:33699, Pseudomonas aeruginosa JMRC:ST:33772, Pseudomonas aeruginosa JMRC:ST:337721, Staphylococcus aureus JMRC:ST:33793 (multi-resistant), Enterococcus faecalis JMRC:ST:33700 (Vancomycin-resistant), Mycobacterium vaccae JMRC:STI:10670, Sporobolomyces salmonicolor (Basidiomycetes yeast) JMRC:ST:35974, Candida albicans (Ascomycetes yeast) JMRC:STI:25000, Penicillium notatum JMRC:STI:50164.
(§3) The bacteria were propagated in Mueller Hinton Broth (Oxoid)[49]. Yeast was propagated in YPD (yeast extract peptone dextrose): 1% yeast extract, 10 g; 2% peptone, 20 g; 2% agar, 20 g; 2% dextrose (glucose), 20 g; Sigma-Y1375. All bacteria and yeast suspensions were freshly made. The cultures were incubated at 37 °C for 16 h. Afterwards, the bacteria concentration from each culture was determined, and 34 ml of nutrient agar was loaded with 10^7 cells. These cultures were stored at 6-8 °C and could be used for seven days for the preparation of test plates. 34 ml of nutrient agar was liquefied and inoculated with the calculated amount of inoculum bacteria suspension at 48–50 °C, a temperature suitable for vegetative forms of bacteria. The inoculated nutrient media (34 ml each) were immediately poured into the prepared test plates (3 mm layer). With a punching device, 12 holes per test plate were punched out. For inhibiting bacterial growth, ciprofloxacin was used as a reference substance. The test substances were dissolved in distilled water, and 5 μg ml^−1 and 50 μl was added to each bacterial culture. For inhibition of fungal growth, amphotericin B served as the reference substance. The test substances were diluted to 10 μg ml^−1 in DMSO/methanol; 50 μl was added to each culture.
(§4) Configuring the test plate; volumes/punched hole: 50 μl; test solutions/test plate: 1 × 50 μl reference substance. Test plates were cultivated for 18 h at 37 °C. Analysis: Reading the inhibition zones (IZ): As IZ, the zone in which no growth can be determined with the naked eye is measured; the tiniest colonies on the edge of the inhibition zone were therefore not taken into consideration. The diameter (φ) of the IZ is measured in mm. The analysis of IZ φ is carried out internationally with the help of statistic procedures, especially regression analysis. With each test approach, the reference substance was brought along as a control; if there were deviations from allowed IZ φ, the test was repeated.
(§5) The inhibition of bacterial growth was determined using bacterial cultures grown in Müller-Hinton Bouillon, which was configured at barely visible opacity with the McFarland Standard Nr. 0.5, which indicates a bacterial density of 10^8 ml^−1. This bacterial suspension was diluted with Müller-Hinton Bouillon using 2-fold dilution series in the agar diffusion test.
(§6) Analysis: The growth in the inhibition zones around the holes containing active substances is thereby compared with the growth in the growth control (no active substance). Bacterial growth was determined according to four measurements: p=presence of colonies in the inhibition zone, P=presence of many colonies in the inhibition zone, A=indication of inhibition, F=facilitation.

[4] = tested on: Enterococcus faecalis JMRC:ST:33700 (Vancomycin-resistant); assay: agar diffusion inhibition zone test; type: cell-based; conditions: 1o, ciprofloxacin 5 µg/ml, solvent DMSO 12P
Description: as §2, §3, §4, §5, §6

[5] = tested on: Escherichia coli JMRC:ST:33699; assay: agar diffusion inhibition zone test; type: cell-based; conditions: 1o, 2o 1,000 µg/ml in DMSO; ciprofloxacin 5 µg/ml; solvent DMSO 13P
Description: as §2, §3, §4, §5, §6

[6] = tested on: Mycobacterium vaccae JMRC:STI:10670; assay: agar diffusion inhibition zone test; type: cell-based; conditions: 1o, 2o 1,000 µg/ml in DMSO; ciprofloxacin 5 µg/ml; solvent DMSO 13P
Description: as §2, §3, §4, §5, §6

[7] = tested on: Penicillium notatum JMRC:STI:50164; assay: agar diffusion inhibition zone test; type: cell-based; conditions: 1o, 2o 1,000 µg/ml in DMSO, amphotericin B 10 µg/ml, solvent DMSO 13p
Description: as §2, §3, §4, §5, §6

[8] = tested on: Pseudomonas aeruginosa JMRC:ST:337721; assay: agar diffusion inhibition zone test; type: cell-based; conditions: 1o, ciprofloxacin 5 µg/ml, solvent DMSO 16P
Description: as §2, §3, §4, §5, §6

[9] = tested on: Pseudomonas aeruginosa JMRC:ST:33772; assay: agar diffusion inhibition zone test; type: cell-based; conditions: 1o, ciprofloxacin 5 µg/ml, solvent DMSO 13P
Description: as §2, §3, §4, §5, §6

[10] = tested on: Sporobolomyces salmonicolor JMRC:ST:35974; assay: agar diffusion inhibition zone test; type: cell-based; conditions: 1o, 2o 1,000 µg/ml in DMSO; amphotericin B 10 µg/ml; solvent DMSO 20p
Description: as §2, §3, §4, §5, §6

[11] = tested on: Staphylococcus aureus JMRC:ST:10760; assay: agar diffusion inhibition zone test; type: cell-based; conditions: 1o, ciprofloxacin 5 µg/ml, solvent DMSO 12P
Description: as §2, §3, §4, §5, §6

[12] = tested on: Staphylococcus aureus JMRC:ST:33793 (multi-resistant); assay: agar diffusion inhibition zone test; type: cell-based; conditions: 1o, ciprofloxacin 5 µg/ml, solvent DMSO 12P
Description: as §2, §3, §4, §5, §6

[13] = pH 7.5
Description: Spectrophotometric titration of 1o or 2o by Cu(II) and Fe(III)
Typically, an aliquot of 250 µl (or 500 µl) of a stock solution (~ 0.89 mM) of 1o or 2o was
dissolved in 2.5 (or 2.0 ml) of a mixed solvent made of 0.2 M sodium hepes buffer at pH 7.5
and DMSO (1:1 v/v) in a 1 cm Hellma optical quartz cell. The absorption spectrophotometric
titrations were carried out by adding microvolumes of a stock solution of the metallic cation (5
mM for Cu(II) or 7.36 mM for Fe(III). Aliquots of 5 µl of the stock metal solution were
successively added to the reaction mixture, and after each addition a UV-visible absorption
spectrum (250 nm < λ < 800 nm) was recorded with an Agilent Cary 5000 spectrophotometer. Special care was taken to ensure that equilibrium was attained after
each addition of the substrate. The association constants KL.M (L = 1o, 2o and M = Fe(III) or
Cu(II)) and the stoichiometry of the species at equilibrium were determined by processing the
spectrophotometric data with the Specfit program. The uncertainties on the log K values are given as 3 with  = standard deviation.

[14] = Plasmodium falciparum, 3D7, 72 h 3H-hypoxanthine incorporation, asexual blood stages, read-out: Antiplasmodial activity IC50 Pf (3D7)

Row | SMILES | IC50 [1, 14] | IC50 (P. falciparum strain Dd2) | GI50 (HUVEC) | GI50 (K-562) | CC50 at 72 h [2] | inhibition zone diameter, Escherichia coli (B4) [5] | inhibition zone diameter, Mycobac. vaccae (M4) [6] | inhibition zone diameter, Sporobolo. salmonicolor (H4) [10] | stability constants log KLM of 1:1 complexes [13] | also measured
1 | COc1ccc2c(c1)CCC1C2CC[C@@]2(C)C1CC[C@H]2NCc1cc2ccccc2cc1O (stereo partly shown) [1o] | ~5 nM | 1 ± 0.9 nM | 108000 nM | 5000 nM | > 113000 nM | 15P | 18p | 22p | 4.1-4.7 | IC50 ([1]; 72 h 3H-hypoxanthine incorporation, asexual blood stages, read-out: Antiplasmodial activity IC50 Pf (3D7)): 4.1 nM; IC50 ([1]; Plasmodium falciparum, 3D7, chloroquine-sensitive and resistant P. falciparum parasites, read-out: IC50 against intraerythrocytic stages): 1 to 5 nM; inhibition zone diameter, Bacillus subtilis (B1) ([3]; 2o 1,000 µg/ml in DMSO): 0 mm; inhibition zone diameter, VRSA Enteroc. faecalis (R10) ([4]; 2o 1,000 µg/ml in DMSO): 0 mm; inhibition zone diameter, Penicillium notatum (P1) [7]: 0 mm; inhibition zone diameter, Pseudomonas aeruginosa JMRC:ST:337721 (B9) ([8]; 2o 1,000 µg/ml in DMSO): 0 mm; inhibition zone diameter, Pseudomonas aeruginosa JMRC:ST:33772 (B7) ([9]; 2o 1,000 µg/ml in DMSO): 0 mm; inhibition zone diameter, Staphylococcus aureus (B3) ([11]; 2o 1,000 µg/ml in DMSO): 0 mm; inhibition zone diameter, MRSA Staph. aureus (R9) ([12]; 2o 1,000 µg/ml in DMSO): 0 mm
2 | COc1ccc2c(c1)CCC1C2CC[C@@]2(C)C1CC[C@@H]2NCc1cc2ccccc2cc1O (stereo partly shown) [2o] | 6.6 nM | 2 ± 1.2 nM | 13800 nM | 2500 nM | > 113000 nM | 16P | 17p | 24p | 4.1-4.7 | zone of inhibition ([3]; Bacillus subtilis, read-out: inhibition zone diameter, Bacillus subtilis (B1)): 0 mm; zone of inhibition ([4]; read-out: inhibition zone diameter, VRSA Enteroc. faecalis (R10)): 0 mm; zone of inhibition at 1000 µg/mL ([7]; Penicillium chrysogenum, read-out: inhibition zone diameter, Penicillium notatum (P1)): 0 mm; zone of inhibition ([8]; Pseudomonas aeruginosa, read-out: inhibition zone diameter, Pseudomonas aeruginosa JMRC:ST:337721 (B9)): 0 mm; zone of inhibition ([9]; Pseudomonas aeruginosa, read-out: inhibition zone diameter, Pseudomonas aeruginosa JMRC:ST:33772 (B7)): 0 mm; zone of inhibition ([11]; Staphylococcus aureus, read-out: inhibition zone diameter, Staphylococcus aureus (B3)): 0 mm; zone of inhibition ([12]; Staphylococcus aureus, MRSA, read-out: inhibition zone diameter, MRSA Staph. aureus (R9)): 0 mm
